Assay results reported in patent US20240199698A1, “PEPTIDE AMPHIPHILE COMPOSITIONS AND METHODS OF USE THEREOF” (UAB RESEARCH FOUNDATION, priority 2022, published 2024).

Legend:
[1] = tested on: diseased hAECs (TNF-α stimulated); assay: Effects of colchicine on diseased EC function (NO production, DAF-FM); type: cell-based, human; conditions: tested 10, 20, 40, 80, 160 nM; three days; versus diseased hAECs without colchicine
Protocol: Experiment approach: hAECs were seeded in 48-well plate at a cell density of 5000 per well and allowed to attach and grow for 24 h to create a stable confluent monolayer of hAECs (hereafter the “endothelium”). Then, the diseased hAECs (“diseased endothelium”) were obtained by stimulating the hAECs with TNF-α (20 ng/mL) for 18 hours. After that, the colchicine at concentrations of 10 nM, 20 nM, 40 nM, 80 nM, and 160 nM was added to the hAECs after TNF-α stimulation, and then the hAECs were cultured for another three days. Then, the diseased hAEC function was assessed by measuring NO production by hAECs using DAF-FM (4-amino-5-methylamino-2′,7′-difluororescein). DAF-FM is essentially nonfluorescent until they react with NO to form a fluorescent benzotriazole. DAF-FM is cell-permeant and passively diffuses across cellular membranes. Once inside cells, it is de-acetylated by intracellular esterases. The fluorescence quantum yield of DAF-FM is —0.005, but increases about 160-fold, to ˜0.81, after reacting with nitric oxide. With excitation/emission maxima of 495/515 nm, DAF-FM can be detected by any instrument that can detect fluorescein, including fluorescent microplate readers. […] After the de-esterification, the fluorescence intensity of DAF-FM in hAECs was measured at (excitation/emission) 495/515 nm.

[2] = tested on: patients with myocardial infarction or chronic coronary disease; conditions: cited from earlier work
[3] = tested on: U937 cells; assay: Effects of colchicine on foam cell formation (Bodipy); type: cell-based; conditions: tested 0, 2, 5, 10, 20, 40 nM; Ox-LDL 100 ug/mL, 3 days
Protocol: Experimental approach: U937 cells with a cell density of 5000 cell/well were seeded in a 48 well plate, then the colchicine with a selected concentration range from 0 to 40 nM, that is 0, 2 nM, 5 nM, 10 nM, 20 nM, and 40 nM, were added into each well-containing monocytes and RAMPI monocyte culture medium. Then each well were added with M-CSF (100 ng/mL), GM-CSF (25 ng/mL) and INF-γ (100 ng/mL) for macrophage formation. After 7 days of culture, then Ox-LDL (100 ug/mL) was added to each well and cultured for 3 days. After 3 days of culture, the effect of […] on foam cell formation was assessed by using Bodipy. It was shown that the suppression of foam cells was observed when the colchicine concentration is above 2 nM, that is, at the concentrations of 5 nM, 10 nM, 20 nM, and 40 nM (FIG. 18B)

[4] = tested on: HAECs; assay: hAEC proliferation, CyQUANT Cell Proliferation Assay; type: cell-based, human; conditions: sirolimus 0-50 nM, with or without 10 -9 M NO, three days
Protocol: Preparation of NO. The peptide amphiphiles (PA-C16-CA and PA-C16-K5) were synthesized, respectively. These two distinct PAs were mixed in a 9:1 ratio (YIGSR:KKKKK) to form PA-C16-YK5, which was subsequently reacted with NO gas to form PA-YK-NO. The released NO was collected, and NO concentration was measured using Greiss Assay.
Treatment on hAEC. hAECs were seeded in a 48-well plate at a cell density of 2000 per well and allowed to attach for 24 h (hereafter the “endothelium”). For the sirolimus-only group, the sirolimus at concentrations of 0, 0.25, 0.1, 0.5, 1, and 50 nM were added to the hAECs, and then the hAECs were cultured for another three days. Similarly, for the dual-treatment group, sirolimus at similar concentrations was combined with 10 -9 M NO and added to hAEC. Then, the proliferation of hAEC under different conditions was assessed by CyQUANT Cell Proliferation Assay after three days. Briefly, the culture medium in each well was removed, and the cells in the tissue culture plate were frozen overnight at −80° C.; then, the dye in the lysis buffer was added after completely thawing at room temperature. After 30 min incubation, the fluorescent signal was measured using a microplate reader at 485/528 nm.

[5] = cited from earlier work

In the case of `COc1cc2c(c(OC)c1OC)-c1ccc(OC)c(=O)cc1[C@@H](NC(C)=O)CC2` [colchicine, N[5′,6,7,9-tetrahydro-1,2,3,10-tetratmethoxy 9-oxobenzo[a]heptalen-7-yl], (S)-acetamide], the “colchicine concentration at which NO production of diseased hAECs increased” value [1] is given as “above 20 nM”, the “composite endpoint of cardiovascular death, resuscitated cardiac arrest, myocardial infarction, stroke, or urgent hospitalization for angina (COLCOT)” value ([2]; 0.5 mg once daily versus placebo, myocardial infarction within 30 days) is given as “lower among those who received 0.5 mg of colchicine once daily than among those who received placebo” and the “risk of acute cardiovascular events (LoDoCo)” value ([2]; 0.5 mg once daily, chronic coronary disease, open-label) is given as “lower among those who received 0.5 mg of colchicine once daily than those who did not receive colchicine”. The “primary composite endpoint of cardiovascular mortality, myocardial infarction, ischemic stroke, and urgent revascularization (meta-analysis)” value ([2]; four major randomized controlled trials) was “significant reduction” and the “colchicine concentration at which suppression of foam cells was observed” value [3] was “above 2 nM”.

For `CO[C@H]1C[C@@H]2CC[C@@H](C)[C@@](O)(O2)C(=O)C(=O)N2CCCC[C@H]2C(=O)O[C@H]([C@H](C)C[C@@H]2CC[C@@H](O)[C@H](OC)C2)CC(=O)[C@H](C)/C=C(\C)[C@@H](O)[C@@H](OC)C(=O)[C@H](C)C[C@H](C)/C=C/C=C/C=C/1C` [Sirolimus], the hAEC proliferation [4] is given as “reduced the proliferation of hAECs dose-dependently” and the solubility in water [5] is given as “virtually insoluble in water”.
